# Literature values in article PMC10070485, “In silico study of HASDI (high-affinity selective DNA intercalator) as a new agent capable of highly selective recognition of the DNA sequence” (Scientific Reports, 2023).
# Legend:
# DNA sequences [1] = test system: DNA sequences; design: method as in PMID 24446378; conditions: docking, MD, MM-PBSA, MESP
# [2] = test system: DNA sequences of the d(ATGCAT)2 type; design: method as in PMID 34299405; conditions: diamine linker in the major groove
# DNA sequences [3] = test system: DNA sequences; design: method as in PMID 31820194; conditions: MD, MM-PB(GB)SA, DFT
# A-T base pairs = conditions: fluorescence titrations
compound,measurement,setting,value
Cc1cc(-c2nc3cc(F)ccc3s2)ccc1N [5F],DNA groove specificity,DNA sequences [1],affinity only to the minor groove
"Nc1cccc2oc(-c3ccccc3)cc(=O)c12 [AMF, 5-aminoflavone]",DNA groove specificity,DNA sequences [1],stable in the minor groove of AT-rich DNA and in the major groove of GC-rich DNA
Cc1cccc2nc3cccc(C(=O)NCCNCCNCCNC(=O)c4cccc5nc6cccc(C)c6nc45)c3nc12 [MLN944],DNA sequence type of greatest affinity,[2],d(ATGCAT)2
COc1cccc2c1C(=O)c1c(O)c3c(c(O)c1C2=O)C[C@@](O)(C(C)=O)C[C@@H]3O[C@H]1C[C@H](N)[C@H](O)[C@H](C)O1 [daunomycin],DNA sequence specificity,DNA sequences [3],highest affinity for TC/GA rich sequences
neomycin-Hoechst 33258-pyrene conjugate,number of A-T base pairs selectively recognized,A-T base pairs,up to 9
